Measured values as given in patent US11370769B2, “TRPC5 inhibitors and methods of using same” (BOARD OF REGENTS OF THE UNIVERSITY OF NEBRASKA, priority 2017, dated 2022).

Legend:
[1] = test system: caAT1R podocytes; test: Cell viability assay in podocytes expressing caAT1R; type: cell-based, mouse; details: 30 μM ML204, 30 μM AC1903 or 50 μM NSC23677 for 36 hours
Description: Podocyte culture and viral transduction: Immortalized mouse podocytes were cultured as previously described (10, 11). Podocyte viral transduction was performed using lentivirus as previously described (10, 11). Briefly, lentivirus production was carried out in HEK293T cells at 60% confluence, and viral particles were collected two days after transfection and purified by centrifugation at 1,000 rcf for 5 min. Purified lentivirus was frozen at −80° C. until further use. Podocytes were transduced with lentivirus after 7 days of differentiation, and assays were performed 5 days after viral transduction.
For experiments in FIG. 4B/C, pCDNA3.1 AT1AR-Δ324 (rat AT1R NM_030985.4) containing HA tag (Plasmid #45635, Addgene) underwent site directed mutagenesis (Agilent) to generate the N111S substitution. For FIG. 4B, differentiated podocytes were transduced with the AT1A-N111S/Δ324 construct in six-well plates. Six days after viral transduction, cells were treated with either vehicle, 30 μM ML204, 30 μM AC1903 or 50 μM NSC23677 for 36 hours. Intracellular production of ROS was measured using a cell-permeable fluorescent dye, 5-(and-6)-chloromethyl-2′,7′-dichlorodihydrofluorescein diacetate, acetyl ester (CM-H2DCFDA, Molecular Probes). Cells were incubated with 5 μM CM-H2DCFDA at 37° C. for 45 min in Hanks' balanced salt solution (HBSS). Cells were then collected, resuspended in HBSS, stained with propidium iodide and the fluorescence intensity was assessed by flow cytometry using MACSQuant Analyzer (Miltenyi Biotec, Bergisch Gladbach, Germany). Living cells, which were PI negative, were selected by FACS gating and the fluorescence of CM-H2DCFDA was recorded on the FL-1 channel (525 nm). For FIG. 4C, differentiated podocytes were transduced with the AT1A-N111S/Δ324 construct in 96 well plates. Six days after transduction, the cells were treated with either vehicle, 30 μM ML204, 30 μM AC1903 or 50 μM NSC23677 for 36 hours. […]

[2] = test system: AT1R Tg rats; test: AT1R Tg rat model of progressive FSGS; type: in vivo
Description: Animals and chemicals: Littermates of wild-type (WT) and AT1R TgNeph-hAT1R/185 transgenic (AT1R Tg) rats were housed under a controlled environment with a 12-hour light-dark cycle and access to food and water ad libitum, unless otherwise described. All animal experiments were performed in accordance to the guidelines established and approved by the Animal Care and Use Committee at Brigham and Women's Hospital, Harvard Medical School (Animal Protocol No. 01538). AT1R Tg rats were placed in the Onset cohort when measured proteinuria was >5 mg/day (at approximately 12 weeks of age) on two separate 24-hour urine collections. AT1R Tg rats were placed in the Advanced cohort when measured proteinuria was >25 mg/day (at approximately 18 weeks of age) on two separate 24-hour urine collections. These thresholds were determined after detailed histologic and phenotypic characterization of AT1R Tg rats compared to WT littermates (all combined, n=91 WT rats and n=122 AT1R Tg rats were studied). The Dahl salt-sensitive (S) inbred strain is maintained at University of Mississippi Medical Center (UMMC) and was originally obtained from University of Toledo-College of Medicine (SS/Jr). All animal experiments performed at UMMC were in accordance to the guidelines established and approved by the Institutional Animal Care and Use Committee. Animals used for this studied were provided either low-salt diet [TD7034, 0.3% NaCl and/or high-salt diet [TD94217, 2.0% NaCl] from Harlan Teklad, Madison, Wis. For onset study, at 4 weeks of age, groups of age-matched male S were weaned to the low-salt diet and divided into two groups: vehicle (n=8) and AC1903 groups (n=8). At 6 weeks of age, both groups were placed on the high-salt diet and concurrently treated with either vehicle or AC1903 for 1-week (Onset). For Advanced study, similarly at 4 weeks of age, groups of age-matched male S were weaned to the low-salt diet and divided into two groups: vehicle (n=9) and AC1903 groups (n=11). At 6 weeks of age, both groups were placed on the high-salt diet. At week 7, concurrent with high-salt diet, animals were treated with either vehicle or AC1903 for 1-week (Advanced). At the conclusion of each study, animals were initially anesthetized under 2-3% isoflurane/O2 gas, a catheter attached to a fluid filled pressure transducer was placed in the aorta, isoflurane gas was reduced to 1.5%, and mean arterial pressure was measured for ˜5 min period using PowerLab 4/30 system (ADI Instruments, Co) as done previously. All chemicals were purchased from Sigma-Aldrich unless otherwise described.
Chemical preparation and IP administration: ML204 and AC1903 were prepared from powder in a single batch for each in vivo experiment to avoid variability. Immediately prior to injections, ML204 or AC1903 solution was placed on a heated shaker at 48° C. and 800 RPM. Vehicle was prepared in the same fashion. Injection volume was determined by body weight (2 mL vehicle/compound per kg body weight). Body weight was measured at the time of injection.
Urine collection and assay: For urine collections, rats were housed individually in a metabolic cage supplied with food and water. Urine was collected into a 50 mL falcon tube for 24 hours. Total urine volume was measured and then centrifuged at 3,200 rcf for 10 min at 4° C. Albumin quantification was done according to previously published protocol (11), involving multiple dilutions of urine from each animal compared to Bovine Serum Albumin (BSA) standards. Coumassie Blue stained gels were quantified by densitometry using ImageJ software. As an additional control, the rat ELISA Albumin kit (Exocell) was used for albumin quantification according to the manufacturer's recommendations and yielded the same results. Urine protein was measured using QuanTtest® Red Total Protein Assay System (Quantimetrix, Redondo Beach, Calif.) and expressed as mg protein/24 hours. […]

For `c1ccc(Cn2c(NCc3ccco3)nc3ccccc32)cc1` [AC1903], the “podocyte cell death on caAT1R expression” value [1] was “protected from cell death”, the “numbers of podocytes per glomerulus” value ([2]; AC1903-treated AT1R Tg rats) was “approximately 120 podocytes/glom” and the BUN ([2]; AC1903 treatment) was “did not affect”. The body weight ([2]; AC1903 treatment) was “did not affect”, the creatinine ([2]; AC1903 treatment) was “did not affect” and the “podocyte numbers compared to vehicle treated controls” value ([2]; Advanced, AC1903 50 mg/kg) was “preserved numbers of podocytes”. For the same molecule, the pseudocyst formation ([2]; Advanced, AC1903 50 mg/kg) was “significant reduction in pseudocyst formation” and the proteinuria ([2]; Advanced, AC1903 50 mg/kg twice daily i.p. for 7 days) was “sufficient to suppress severe proteinuria”.

With `Cc1cc(N2CCCCC2)nc2ccccc12` [ML204, reference compound] the “podocyte cell death on caAT1R expression” value [1] was “protected from cell death”, the proteinuria progression ([2]; Advanced cohort, 25 mg/kg twice daily i.p., at 7 days and 14 days) was “suppressed progression of proteinuric disease” and the podocyte pseudocyst formation ([2]; Advanced, ML204) was “prevented pseudocyst formation”. The “podocyte numbers (morphometric analysis)” value ([2]; Advanced, ML204 vs PBS-treated Tg rats) was “prevented podocyte loss”, the BUN ([2]; ML204 treatment) was “did not affect” and the body weight ([2]; ML204 treatment) was “did not affect”. The creatinine ([2]; ML204 treatment) was “did not affect” and the proteinuria ([2]; Onset cohort, ML204 twice daily i.p. for 7 days) was “complete suppression of proteinuria down to baseline levels”.
